Article PMC2790104, “Effects of Acrylamide on the Activity and Structure of Human Brain Creatine Kinase” (International Journal of Molecular Sciences, 2009)
pIC50: −log10 of the molar value.

Target: T1, HBCK (human brain-type creatine kinase, human BB-CK) (Homo sapiens, UniProt P12277)
T1 construct: gene CKB; homodimer BB; identified by LC-MS/MS
Assay: residual activity after […] h incubation, pH-colorimetric assay (thymol blue, […] nm)
Assay type: biochemical

T1 sequence (P12277 2-381): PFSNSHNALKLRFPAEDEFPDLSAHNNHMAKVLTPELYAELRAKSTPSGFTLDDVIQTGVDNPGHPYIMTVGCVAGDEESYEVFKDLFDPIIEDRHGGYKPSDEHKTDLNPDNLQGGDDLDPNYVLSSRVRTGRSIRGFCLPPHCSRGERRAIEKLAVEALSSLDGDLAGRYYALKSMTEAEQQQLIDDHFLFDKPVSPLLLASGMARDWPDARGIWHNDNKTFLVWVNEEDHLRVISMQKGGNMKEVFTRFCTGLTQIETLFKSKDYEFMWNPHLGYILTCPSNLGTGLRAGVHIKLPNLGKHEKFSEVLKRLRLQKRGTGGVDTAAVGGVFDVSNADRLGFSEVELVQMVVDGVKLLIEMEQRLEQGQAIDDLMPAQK

Compound: C=CC(N)=O [acrylamide]
- pIC50: ~1.30
